In test [1] the target is T1, serotonin 1A receptors ([3H]8-OH-DPAT binding, hippocampus membrane preparation) (Rattus norvegicus, UniProt P19327).
T1 construct: 146 μl of the hippocampus membrane preparation (80 μg/tube in terms of protein); from tissue; host or cells: male rat hippocampus membrane preparation
T1 sequence (P19327 1-422): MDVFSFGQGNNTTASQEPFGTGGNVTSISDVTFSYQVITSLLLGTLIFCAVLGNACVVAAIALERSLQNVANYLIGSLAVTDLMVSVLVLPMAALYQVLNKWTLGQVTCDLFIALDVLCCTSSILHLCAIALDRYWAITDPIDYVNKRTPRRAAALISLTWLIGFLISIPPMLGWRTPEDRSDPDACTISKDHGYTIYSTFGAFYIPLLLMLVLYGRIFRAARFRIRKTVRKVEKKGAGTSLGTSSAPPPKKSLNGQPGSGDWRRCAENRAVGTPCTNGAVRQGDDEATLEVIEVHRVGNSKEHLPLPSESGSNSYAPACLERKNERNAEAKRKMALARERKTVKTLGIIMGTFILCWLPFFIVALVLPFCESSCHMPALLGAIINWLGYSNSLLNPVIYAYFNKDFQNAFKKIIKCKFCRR
The experiment in a line: [3H]8-OH-DPAT binding test (Test Example 2). The note with it: 2 nM [3H]8-OH-DPAT, test agent concentration not given, read-out: Rate of inhibition of [^3H] 8-OH-DPAT binding (%). The protocol: [^3H]18-OH-DPAT Binding Test
The test was carried out according to the method^2) of Hall M. D. et al. After pre-breeding for about 1 week, a male rat was decapitated and the brain was immediately removed. The hippocampus was separated from the brain on ice, and 50 mM Tris-HCl (pH=7.4) was added to the hippocampus in an amount of 40 times the wet weight of the hippocampus, followed by homogenization (3 min, 1 stroke/min) in an ice bath by the use of a Teflon-glass homogenizer. Then, the homogenate was centrifuged (4° C.) at 40,000×g for 10 minutes. The resulting precipitate was dispersed in an ice-cooled buffer solution (50 mM Tris-HCl (pH=7.4)) by the use of Hiscotron, followed by centrifugation (4° C.) at 40,000×g for 10 minutes. Moreover, the resulting precipitate was re-suspended and the washing procedure was repeated once. The precipitate thus obtained was dispersed in an ice-cooled buffer solution (50 mM Tris-HCl (pH=7.4)) by the use of Hiscotron™, and the resulting dispersion was incubated at 37° C. for 1 hour and then centrifuged (4° C.) at 40,000×g for 10 minutes. Furthermore, the resulting precipitate was re-suspended and the washing procedure was repeated once. The resulting membrane preparation was suspended in the same buffer solution as described above, and then subjected to cryopreservation at −80° C.
Measurement was carried out by using a liquid for reaction obtained by adding 50 μl of [^3H]8-OH-DPAT (final concentration: 2 nM), 4 μl of a solution of a test agent and 146 μl of the hippocampus membrane preparation (80 μg/tube in terms of protein) to a buffer solution containing 50 mM Tris-HCl (pH=7.4) and 4 mM CaCl2 to make a total volume of 200 μl. The liquid for reaction was allowed to react at room temperature for 30 minutes and then rapidly filtered by suction at a low pressure through glass fiber filter paper. The glass fiber filter paper was washed twice with 250 μl of a buffer solution and then added to a glass vial containing 4 ml of ACS-II (Amersham), and the radioactivity bound to receptors and remaining on the filter paper was measured with a liquid scintillation counter. The amount of [^3H]8-OH-DPAT bound in the presence of 1 μM of 8-OH-DPAT was taken as the amount of [^3H]8-OH-DPAT non-specifically bound.
(§1) Rate of binding inhibition was calculated by the following equation:
Rate of binding inhibition (%)=100−100×{[amount of [^3H]8-OH-DPAT bound in the presence of test substance]−[amount of [^3H]8-OH-DPAT bound in the presence of 1 μM 8-OH-DPAT]/[amount of [^3H]8-OH-DPAT bound in the absence of test substance]−[amount of [^3H]8-OH-DPAT bound in the presence of 1 μM 8-OH-DPAT]}

The target in test [2] is T2, human 5-HT1A receptors (human 5-HT1A/CHO membrane preparation) (Homo sapiens, UniProt P08908).
T2 construct: expressed in transfected cells; host or cells: CHO cells (human 5-HT1A/CHO), Geneticin-selected
T2 sequence (P08908 1-422): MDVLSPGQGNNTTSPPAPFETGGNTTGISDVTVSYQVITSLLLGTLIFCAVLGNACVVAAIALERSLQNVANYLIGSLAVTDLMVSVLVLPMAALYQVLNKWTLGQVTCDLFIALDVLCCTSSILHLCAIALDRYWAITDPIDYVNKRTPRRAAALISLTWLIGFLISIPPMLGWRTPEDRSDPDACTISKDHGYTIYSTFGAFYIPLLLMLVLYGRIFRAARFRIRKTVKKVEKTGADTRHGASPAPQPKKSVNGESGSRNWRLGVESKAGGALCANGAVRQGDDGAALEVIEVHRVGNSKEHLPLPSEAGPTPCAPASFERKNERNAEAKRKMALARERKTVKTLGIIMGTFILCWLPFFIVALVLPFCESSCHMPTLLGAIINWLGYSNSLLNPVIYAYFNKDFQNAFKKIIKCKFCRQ
The experiment in a line: 5-HT1A receptor actuation test, [35S]GTPγS binding (Test Example 3). The class given is biochemical. The note with it: 10^-5 M test substance; rate of increase in [35S]GTPγS binding, increase due to 10 μM 5-HT taken as 100%. The method, then: 5-HT1A Receptor Actuation Test
3-1. Cells Used and Preparation of a Membrane Preparation
Human ^5-HT1A receptor expression CHO cells (human 5-HT1A/CHO) were used in the experiment. The cells were cultured on F12 containing 10% FCS, 500 μg/ml Geneticin and 100 U/ml penicillin-100 μg/ml streptomycin (all available from GIBCO) in a 5% CO2 incubator, and a membrane preparation was prepared according to the method^3) of A. Newman et al. In detail, cells peeled and collected by the use of buffer solution A (20 mM HEPES, 5 mM MgSO4) were homogenized in a Teflon homogenizer, followed by centrifugation (50,000×g, 30 min, 4° C.). The precipitate was re-suspended in a suitable volume of buffer solution A and stored at −80° C. until use The amount of proteins in the membrane preparation was determined with Dye Reagent Concentrate (BIO-RAD) by using Albumin Bovine (SIGMA) as a standard substance.
Binding of [^35S]GTPγS to human 5-HT1A receptors was measured by the use of the above-mentioned membrane preparation according to the method^3) of Newman et al. In detail, 0.05 nM of [^35S]GTPγS (E. I. du Pont de Nemours & Co. NEN) and a definite amount (about 50 μg/tube) of the membrane preparation were added to buffer solution B (20 mM HEPES, 3 mM MgSO4, 3 μM GDP, 1 mM DTT) containing 10^−5M of each test substance, and the resulting liquid for reaction having a total volume of 1 ml was incubated at 22° C. for 20 minutes. After completion of the reaction, the reaction mixture was diluted with 5 ml of ice-cooled buffer solution B, and the dilution was rapidly filtered by suction at a low pressure through glass fiber filter paper (Whatman, GF/B) to terminate the reaction. The glass fiber filter paper was washed twice with the same buffer solution as above and placed in a vial, and 4 ml of ACS-II was added thereto. The radioactivity of [^35S]GTPγS on the filter paper was measured with a liquid scintillation counter. The amount of [^35S]GTPγS specifically bound was calculated from the amount of [^35S]GTPγS non-specifically bound in the presence of 10 μM of GTPγS (Sigma). The 5-HTLA receptor actuating activity of each test substance was expressed in terms of the rate of increase in [^35S]GTPγS binding by taking an increase in [^35S]GTPγS binding due to 10 μM of 5-HT as 100%.
For orientation: Binding of GTPγS marks nucleotide exchange on a G protein.

The target of test [3] is T3, [3H]citalopram binding site, cerebral cortex membrane preparation (serotonin reuptake) (Rattus norvegicus, UniProt P31652).
T3 construct: 146 μl of the cerebral cortex membrane preparation (72 μg/well in terms of protein); from tissue; host or cells: male rat cerebral cortex membrane preparation
Kind of test: Screening test using [3H]citalopram binding (Test Example 1). The conditions noted are these: 0.7 nM [3H]citalopram, test agent concentration not given, read-out: Rate of inhibition of [^3H] citalopram binding (%). The method, then:
Screening Test Using [^3H[Citalopram Binding
1-1. Preparation of a Cerebral Cortex Membrane Preparation
The membrane preparation was prepared according to the method^1) of D'amato et al. In detail, after a male rat was decapitated, the whole brain was immediately removed and the cerebral cortex was separated therefrom under ice-cooling. A buffer solution (50 mM Tris-HCl (pH=7.4), 120 mM NaCl, 5 mM KCl) was added to the cerebral cortex in an amount of 2.5 times the wet weight of the cerebral cortex, followed by homogenization in an ice bath by the use of a Teflon-glass homogenizer. The homogenate was centrifuged at 4° C. and 45,000×g for 10 minutes, and the resulting precipitate was dispersed in an ice-cooled buffer solution (50 mM Tris-HCl (pH=7.4), 120 mM NaCl, 5 mM KCl) by the use of Hiscotron™, followed by centrifugation at 4° C. and 45,000×g for 10 minutes. The resulting precipitate was re-suspended and the washing procedure was repeated. The membrane preparation thus obtained was suspended in the same buffer solution as described above, and then subjected to cryopreservation at −80° C.
1-2 Receptor Binding Experiment
[^3H]citalopram binding was measured according to the method^1) of D'amato et al. In detail, 50 μl of a dilution (final concentration: 0.7 nM) of [^3H]citalopram with 50 mM Tris-HCl (pH=7.4) buffer containing 120 mM NaCl and 5 mM KCl, 146 μl of the cerebral cortex membrane preparation (72 μg/well in terms of protein) and 4 μl of a solution of a test agent in dimethyl sulfoxide were mixed to make a total volume of 200 μl. The resulting liquid was allowed to react at room temperature for 60 minutes and then rapidly filtered by suction at a low pressure through glass fiber filter paper. The glass fiber filter paper was washed twice with 250 μl of the same buffer solution as above and then transferred to a glass vial containing 4 ml of ACS-II (Amersham), and the radio-activity remaining on the filter paper was measured with a liquid scintillation counter.
The amount of [^3H]citalopram bound in the presence of 100 μM 5-HT was taken as the amount of [^3H]citalopram non-specifically bound.
as §1
Rate of binding inhibition (%)=100−100×{[amount of [^3H]citalopram bound in the presence of test agent]−[amount of [^3H]citalopram bound in the presence of 100 μM 5-HT]/[amount of [^3H]citalopram bound in the absence of test agent]−[amount of [^3H]citalopram bound in the presence of 100 μM 5-HT]}

Usually inhibition stands for the relative decrease from the control value, in per cent.

T3 sequence (P31652 whole entry): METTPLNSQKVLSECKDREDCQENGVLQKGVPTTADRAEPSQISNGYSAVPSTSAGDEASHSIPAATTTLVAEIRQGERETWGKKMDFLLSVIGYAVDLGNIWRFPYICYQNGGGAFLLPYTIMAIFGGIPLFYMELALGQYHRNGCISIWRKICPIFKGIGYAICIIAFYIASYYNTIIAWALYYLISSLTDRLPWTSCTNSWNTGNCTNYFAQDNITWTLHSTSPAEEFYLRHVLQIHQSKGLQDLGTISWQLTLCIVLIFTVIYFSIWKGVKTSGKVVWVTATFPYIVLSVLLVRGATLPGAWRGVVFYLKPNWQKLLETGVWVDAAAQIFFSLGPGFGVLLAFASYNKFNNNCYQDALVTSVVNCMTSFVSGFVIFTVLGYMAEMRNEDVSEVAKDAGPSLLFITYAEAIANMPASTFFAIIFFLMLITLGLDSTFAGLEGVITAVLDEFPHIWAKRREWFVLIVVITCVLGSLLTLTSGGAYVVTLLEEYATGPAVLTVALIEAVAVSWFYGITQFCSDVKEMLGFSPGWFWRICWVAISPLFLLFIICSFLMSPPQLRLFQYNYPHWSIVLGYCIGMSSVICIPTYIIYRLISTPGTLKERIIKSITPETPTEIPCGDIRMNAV

For the compound `COc1ccc(Br)c(CC2CCN(CCc3ccccc3)CC2)c1` [Example 11, N-phenethyl-4-(2-bromo-5-methoxybenzyl)-piperidine], the inhibition in test [1] was 96%; in test [3] it was 82%. The “5-HT14 receptor actuating activity (%)” value in test [2] was 32%.

As to `COc1ccc(Br)c(CC2CCN(Cc3cccc(C(=O)NCc4ccccc4)c3)CC2)c1` [Example 12], the inhibition in test [1] was 98%; in test [3], 100%. Further, the “5-HT14 receptor actuating activity (%)” value in test [2] amounted to 19%.

Regarding `NC(=O)c1cccc(CCN2CCC(Cc3ccccc3Br)CC2)c1` [Example 49], the inhibition is 47% in test [1] and 98% in test [3]. Besides, the “5-HT14 receptor actuating activity (%)” value in test [2] was found to be 48%.

Consider `COc1ccc(Br)c(CC2CCN(CCc3cccc4ccccc34)CC2)c1` [Example 54, N-(2-(1-naphthyl)ethyl)-4-(2-bromo-5-methoxybenzyl)piperidine], for which the inhibition was found to be 92% in test [1] and 73% in test [3].

Take `COc1ccc(Cl)c(CC2CCN(CCCN3C(=O)c4ccccc4C3=O)CC2)c1` [Example 82, N-(3-phthaliminopropyl)-4-(2-chloro-5-methoxybenzyl)piperidine]: the inhibition in test [1] came to 72%; in test [3], 100%. In test [2], the “5-HT14 receptor actuating activity (%)” value is 49%.

Turning to `COc1ccc(Br)c(CC2CCN(CCc3cccnc3)CC2)c1` [Example 103, N-(2-(3-pyridyl)ethyl)-4-(2-bromo-5-methoxybenzyl)piperidine], the inhibition in test [1] worked out at 94%; in test [3] it was 91%. Also, the “5-HT14 receptor actuating activity (%)” value in test [2] is on record as 52%.

In the case of `CCOc1ccc(Br)c(CC2CCN(CCc3ccccc3Cl)CC2)c1` [Example 169, N-(2-(2-chlorophenyl)ethyl)-4-(2-bromo-5-ethoxybenzyl)piperidine], the values for the inhibition in test [1] and in test [3] were 74% and 86%, respectively. Further, the “5-HT14 receptor actuating activity (%)” value in test [2] turned out to be 48%.

The values are drawn from US6787560B2, “Serotonin reuptake inhibitor” (Sumitomo Pharmaceuticals Company Limited, priority 2000, dated 2004).
